Source: US20120142667A1, “PYRIMIDINE DERIVATIVES AS ZAP-70 INHIBITORS” (priority 2009, published 2012)
Where a name gives a salt, the structure may show the parent alone.

Experiments:
[1] = molecular target: T1, ZAP-70 (Homo sapiens, UniProt P43403); assay: ZAP-70 kinobeads assay; type: binding; details: cell lysate
T1 construct: endogenous in cells; host or cells: cell lysate
T1 sequence (P43403 1-619): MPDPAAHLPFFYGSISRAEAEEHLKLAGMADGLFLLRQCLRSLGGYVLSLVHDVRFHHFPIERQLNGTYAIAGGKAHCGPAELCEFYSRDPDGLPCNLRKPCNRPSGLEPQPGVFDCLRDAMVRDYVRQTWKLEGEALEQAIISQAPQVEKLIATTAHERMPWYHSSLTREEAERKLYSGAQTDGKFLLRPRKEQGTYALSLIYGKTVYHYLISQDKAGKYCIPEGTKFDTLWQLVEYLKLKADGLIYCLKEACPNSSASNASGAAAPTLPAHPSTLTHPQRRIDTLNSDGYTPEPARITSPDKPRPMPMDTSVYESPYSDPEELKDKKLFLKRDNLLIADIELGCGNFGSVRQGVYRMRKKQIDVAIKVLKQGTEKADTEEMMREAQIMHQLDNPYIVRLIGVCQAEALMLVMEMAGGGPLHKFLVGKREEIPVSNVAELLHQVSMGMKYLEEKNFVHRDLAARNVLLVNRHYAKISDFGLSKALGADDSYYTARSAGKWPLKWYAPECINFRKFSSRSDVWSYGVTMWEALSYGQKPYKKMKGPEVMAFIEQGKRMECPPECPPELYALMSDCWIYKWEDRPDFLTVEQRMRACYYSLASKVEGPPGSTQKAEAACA
Procedure: The compounds of the present invention as described in the previous examples can be tested in the ZAP-70 kinobeads assay as described (EP-A 1862802 and WO-A 2007/137867). Briefly, test compounds (at various concentrations) and the affinity matrix with the immobilized aminopyrido-pyrimidine ligand 24 are added to cell lysate aliquots and allowed to bind to the proteins in the lysate sample. After the incubation time the beads with captured proteins are separated from the lysate. Bound proteins are then eluted and the presence ZAP-70 is detected and quantified using a specific antibody in a dot blot procedure and the Odyssey infrared detection system.

[2] = tested on: Calcium Ion Release in Cells; assay: calcium release assay (measurement of calcium ion release in cells); type: cell-based; details: calcium release assay as described in WO-A 2009/080638

Row | IC50 [1] [nM] | IC50 [2] [nM] | Structure (SMILES)
1 | ≤ 100 | ≤ 1000 | COc1ccc(Nc2nc(Nc3cc(OCCCN4CCCCC4)ccc3OC)ncc2Cl)c(NS(C)(=O)=O)c1 [Example 2, N-(2-(5-chloro-2-(2-methoxy-5-(3-(piperidin-1-yl)propoxy)phenylamino)pyrimidin-4-ylamino)-5-methoxyphenyl)methanesulfonamide]
2 | ≤ 100 | ≤ 1000 | COc1ccc(Nc2nc(Nc3cnc(OC)cc3OC)ncc2Cl)c(NS(C)(=O)=O)c1 [Example 3, N-(2-(5-chloro-2-(4,6-dimethoxypyridin-3-ylamino)pyrimidin-4-ylamino)-5-methoxyphenyl)methanesulfonamide]
3 | ≤ 100 | ≤ 1000 | COc1ccc(Nc2nc(Nc3ccc(OCCO)cc3OC)ncc2Cl)c(NS(C)(=O)=O)c1 [Example 4, N-(2-(5-chloro-2-(4-(2-hydroxyethoxy)-2-methoxyphenylamino)pyrimidin-4-ylamino)-5-methoxyphenyl)methanesulfonamide]
4 | ≤ 100 | ≤ 1000 | COc1ccc(Nc2nc(Nc3cccc(OCC(=O)N4CCC4)c3C)ncc2Cl)c(NS(C)(=O)=O)c1 [Example 5, N-(2 (2 (3 (2 (azetidin-1-yl)-2-oxoethoxy)-2-methylphenylamino)-5-chloropyrimidin-4-ylamino)-5-methoxyphenyl)methanesulfonamide]
5 | 100 to 1000 | ≤ 1000 | COc1ccc(OC)c(Nc2ncc(Cl)c(Nc3ccccc3NS(C)(=O)=O)n2)c1 [Example 16, N-(2-(5-chloro-2-(2,5-dimethoxyphenylamino)pyrimidin-4-ylamino)phenyl)methanesulfonamide hydrochloride]
6 | 100 to 1000 | ≤ 1000 | COc1ccc(Nc2nc(Nc3cc(OC)c(OC)cc3OC)ncc2Cl)c(NS(C)(=O)=O)c1 [Example 29, N-(2-(5-chloro-2-(2,4,5-trimethoxyphenylamino)pyrimidin-4-ylamino)-5-methoxyphenyl)methanesulfonamide]
7 | ≤ 100 | ≤ 1000 | COc1ccc(Nc2nc(Nc3ccc(OCCCN4CCCCC4)cc3OC)ncc2Cl)c(NS(C)(=O)=O)c1 [Example 30, N-(2-(5-chloro-2-(2-methoxy-4-(3-(piperidin-1-yl)propoxy)phenylamino)pyrimidin-4-ylamino)-5-methoxyphenyl)methanesulfonamide]
8 | 100 to 1000 | ≤ 1000 | COc1ccc(Nc2nc(Nc3ccc(OC)c(OC)c3OC)ncc2Cl)c(NS(C)(=O)=O)c1 [Example 32, N-(2-(5-chloro-2-(2,3,4-trimethoxyphenylamino)pyrimidin-4-ylamino)-5-methoxyphenyl)methanesulfonamide hydrochloride]
9 | ≤ 100 | ≤ 1000 | COc1ccc(Nc2nc(Nc3cc(OC)c(OC)cc3C)ncc2Cl)c(NS(C)(=O)=O)c1 [Example 37, N-(2-(5-chloro-2-(4,5-dimethoxy-2-methylphenylamino)pyrimidin-4-ylamino)-5-methoxyphenyl)methanesulfonamide]
10 | 100 to 1000 | ≤ 1000 | COc1ccc(Nc2nc(Nc3ccc(OCCO)cc3F)ncc2Cl)c(NS(C)(=O)=O)c1 [Example 55, N-(2-(5-chloro-2-(2-fluoro-4-(2-hydroxyethoxy)phenylamino)pyrimidin-4-ylamino)-5-methoxyphenyl)methanesulfonamide]
11 | 100 to 1000 | ≤ 1000 | COc1ccc(C)c(Nc2ncc(Cl)c(Nc3ccc(OC)cc3NS(C)(=O)=O)n2)c1 [Example 57, N-(2-(5-chloro-2-(5-methoxy-2-methylphenylamino)pyrimidin-4-ylamino)-5-methoxyphenyl)methanesulfonamide hydrochloride]
12 | 100 to 1000 | ≤ 1000 | COc1ccc(Nc2nc(Nc3ccc(OCCN)cc3OC)ncc2Cl)c(NS(C)(=O)=O)c1 [Example 63, N-(2-(2-(4-(2-aminoethoxy)-2-methoxyphenylamino)-5-chloropyrimidin-4-ylamino)-5-methoxyphenyl)methanesulfonamide]
13 | 100 to 1000 | ≤ 1000 | COc1ccc(Nc2nc(Nc3cc(OCCO)ccc3F)ncc2Cl)c(NS(C)(=O)=O)c1 [Example 64, N-(2-(5-chloro-2-(2-fluoro-5-(2-hydroxyethoxy)phenylamino)pyrimidin-4-ylamino)-5-methoxyphenyl)methanesulfonamide]
14 | ≤ 100 | ≤ 1000 | COc1ccc(Nc2nc(Nc3cccc(OCCO)c3C)ncc2Cl)c(NS(C)(=O)=O)c1 [Example 65, N-(2-(5-chloro-2-(3-(2-hydroxyethoxy)-2-methylphenylamino)pyrimidin-4-ylamino)-5-methoxyphenyl)methanesulfonamide]
15 | 100 to 1000 | ≤ 1000 | COc1ccc(Nc2nc(Nc3cc(OCCN)ccc3OC)ncc2Cl)c(NS(C)(=O)=O)c1 [Example 67, N-(2-(2-(5-(2-aminoethoxy)-2-methoxyphenylamino)-5-chloropyrimidin-4-ylamino)-5-methoxyphenyl)methanesulfonamide hydrochloride]
16 | ≤ 100 | ≤ 1000 | COc1ccc(Nc2nc(Nc3cc(OCCO)ccc3OC)ncc2Cl)c(NS(C)(=O)=O)c1 [Example 68, N-(2-(5-chloro-2-(5-(2-hydroxyethoxy)-2-methoxyphenylamino)pyrimidin-4-ylamino)-5-methoxyphenyl)methanesulfonamide]
17 | ≤ 100 | – | COc1ccc(Nc2nc(Nc3cc(OC)c(CC(=O)O)cc3OC)ncc2Cl)c(NS(C)(=O)=O)c1 [Example 100, 2-(4-((5-chloro-4-((4-methoxy-2-(methylsulfonamido)phenyl)amino)pyrimidin-2-yl)amino)-2,5-dimethoxyphenyl)acetic acid]
18 | 1000 to 10000 | – | COc1ccc(OCCO)cc1Nc1ncc(F)c(Nc2ccccc2NS(C)(=O)=O)n1 [Example 102, N-(2-(5-fluoro-2-(5-(2-hydroxyethoxy)-2-methoxyphenylamino)pyrimidin-4-ylamino)phenyl)methanesulfonamide]
19 | 1000 to 10000 | – | COc1ccc(OCCO)cc1Nc1ncc(F)c(Nc2cccc(C)c2NS(C)(=O)=O)n1 [Example 103, N-(2-(5-fluoro-2-(5-(2-hydroxyethoxy)-2-methoxyphenylamino)pyrimidin-4-ylamino)-6-methylphenyl)methanesulfonamide]
20 | 1000 to 10000 | – | COc1ccc(Nc2nc(Nc3cc(OCC(C)(C)O)ccc3OC)ncc2Cl)c(NS(C)(=O)=O)c1 [Example 104, N-(2-((5-chloro-2-((5-(2-hydroxy-2-methylpropoxy)-2-methoxyphenyl)amino)pyrimidin-4-yl)amino)-5-methoxyphenyl)methanesulfonamide]
21 | 100 to 1000 | – | COc1ccc(OCCO)cc1Nc1ncc(Cl)c(Nc2ccccc2NS(C)(=O)=O)n1 [Example 109, N-(2-(5-chloro-2-(5-(2-hydroxyethoxy)-2-methoxyphenylamino)pyrimidin-4-ylamino)phenyl)methanesulfonamide]
22 | 1000 to 10000 | – | COc1ccc(Nc2nc(Nc3cc(OCCO)c(OC)cc3C)ncc2Cl)c(NS(C)(=O)=O)c1 [Example 114, N-(2-(5-chloro-2-(5-(2-hydroxyethoxy)-4-methoxy-2-methylphenylamino)pyrimidin-4-ylamino)-5-methoxyphenyl)methanesulfonamide]
23 | 1000 to 10000 | – | COC(=O)CCc1ccc(OC)c(Nc2ncc(Cl)c(Nc3ccc(OC)cc3NS(C)(=O)=O)n2)c1 [Example 115, Methyl 3-(3-(5-chloro-4-(4-methoxy-2-(methylsulfonamido)phenylamino)pyrimidin-2-ylamino)-4-methoxyphenyl)propanoate]
24 | 100 to 1000 | – | COc1ccc(OCCO)cc1Nc1ncc(Cl)c(Nc2cccc(F)c2NS(C)(=O)=O)n1 [Example 116, N-(2-(5-chloro-2-(5-(2-hydroxyethoxy)-2-methoxyphenylamino)pyrimidin-4-ylamino)-6-fluorophenyl)methanesulfonamide]
25 | ≤ 100 | – | COc1ccc(Nc2nc(Nc3cc(OCCO)ccc3OC)ncc2Br)c(NS(C)(=O)=O)c1 [Example 117, N-(2-((5-bromo-2-((5-(2-hydroxyethoxy)-2-methoxyphenyl)amino)pyrimidin-4-yl)amino)-5-methoxyphenyl)methanesulfonamide]
26 | 100 to 1000 | – | COc1ccc(OCCO)cc1Nc1ncc(Cl)c(Nc2cccc(C)c2NS(C)(=O)=O)n1 [Example 118, N-(2-(5-chloro-2-(5-(2-hydroxyethoxy)-2-methoxyphenylamino)pyrimidin-4-ylamino)-6-methylphenyl)methanesulfonamide]
27 | 100 to 1000 | – | COc1ccc(OCCO)cc1Nc1ncc(Cl)c(Nc2cccc(OC)c2NS(C)(=O)=O)n1 [Example 119, N-(2-(5-chloro-2-(5-(2-hydroxyethoxy)-2-methoxyphenylamino)pyrimidin-4-ylamino)-6-methoxyphenyl)methanesulfonamide]
